Laboratory results reported in patent US12404262B2 (priority 2021, dated 2025).

Conditions: 1.0% DMSO, 24-hour incubation at ambient temperature, maximum theoretical 100 μM; for pH 2 solubility: 0.1N HCl, first value of the cell; for pH 7 solubility: 1×PBS buffer (pH 7.4), second value of the cell

Row | Compound | pH 2 solubility | pH 7 solubility
1 | C[C@H](O)[C@H](C)OC(=O)N(c1nn(CC(F)(F)F)c2c(-c3ccc(C#CC(C)(C)S(C)(=O)=O)nc3[C@H](Cc3cc(F)cc(F)c3)NC(=O)Cn3nc(C(F)(F)F)c4c3C(F)(F)[C@@H]3C[C@H]43)ccc(Cl)c12)S(C)(=O)=O [Compound 95, (2S,3S)-3-hydroxybutan-2-yl (4-chloro-7-(2-((S)-1-(2-((3bS,4aR)-5,5-difluoro-3-(trifluoromethyl)-3b,4,4a,5-tetrahydro-1H-cyclopropa[3,4]cyclopenta[1,2-c]pyrazol-1-yl)acetamido)-2-(3,5-difluorophenyl)ethyl)-6-(3-methyl-3-(methylsulfonyl)but-1-yn-1-yl)pyridin-3-yl)-1-(2,2,2-trifluoroethyl)-1H-indazol-3-yl)(methylsulfonyl)carbamate] | 1 μM | 3 μM
2 | CC(C)(C#Cc1ccc(-c2ccc(Cl)c3c(N(C(=O)OCCCCCO)S(C)(=O)=O)nn(CC(F)(F)F)c23)c([C@H](Cc2cc(F)cc(F)c2)NC(=O)Cn2nc(C(F)(F)F)c3c2C(F)(F)[C@@H]2C[C@H]32)n1)S(C)(=O)=O [Compound 103, 5-hydroxypentyl (4-chloro-7-(2-((S)-1-(2-((3bS,4aR)-5,5-difluoro-3-(trifluoromethyl)-3b,4,4a,5-tetrahydro-1H-cyclopropa[3,4]cyclopenta[1,2-c]pyrazol-1-yl)acetamido)-2-(3,5-difluorophenyl)ethyl)-6-(3-methyl-3-(methylsulfonyl)but-1-yn-1-yl)pyridin-3-yl)-1-(2,2,2-trifluoroethyl)-1H-indazol-3-yl)(methylsulfonyl)carbamate] | 1/1 μM | 1/1 μM
3 | CC(C)(C#Cc1ccc(-c2ccc(Cl)c3c(N(C(=O)OCCCN)S(C)(=O)=O)nn(CC(F)(F)F)c23)c([C@H](Cc2cc(F)cc(F)c2)NC(=O)Cn2nc(C(F)(F)F)c3c2C(F)(F)[C@@H]2C[C@H]32)n1)S(C)(=O)=O [Compound 129, 3-aminopropyl (4-chloro-7-(2-((S)-1-(2-((3bS,4aR)-5,5-difluoro-3-(trifluoromethyl)-3b,4,4a,5-tetrahydro-1H-cyclopropa[3,4]cyclopenta[1,2-c]pyrazol-1-yl)acetamido)-2-(3,5-difluorophenyl)ethyl)-6-(3-methyl-3-(methylsulfonyl)but-1-yn-1-yl)pyridin-3-yl)-1-(2,2,2-trifluoroethyl)-1H-indazol-3-yl)(methylsulfonyl)carbamate] | 54 μM | 7 μM
4 | CN(CCO)C(=O)N(c1nn(CC(F)(F)F)c2c(-c3ccc(C#CC(C)(C)S(C)(=O)=O)nc3[C@H](Cc3cc(F)cc(F)c3)NC(=O)Cn3nc(C(F)(F)F)c4c3C(F)(F)[C@@H]3C[C@H]43)ccc(Cl)c12)S(C)(=O)=O [Compound 50, N—((S)-1-(3-(4-chloro-3-(N-((2-hydroxyethyl)(methyl)carbamoyl)methylsulfonamido)-1-(2,2,2-trifluoroethyl)-1H-indazol-7-yl)-6-(3-methyl-3-(methylsulfonyl)but-1-yn-1-yl)pyridin-2-yl)-2-(3,5-difluorophenyl)ethyl)-2-((3bS,4aR)-5,5-difluoro-3-(trifluoromethyl)-3b,4,4a,5-tetrahydro-1H-cyclopropa[3,4]cyclopenta[1,2-c]pyrazol-1-yl)acetamide] | 1 μM | 2 μM
5 | CC(C)(C#Cc1ccc(-c2ccc(Cl)c3c(N(C(=O)NCC(=O)O)S(C)(=O)=O)nn(CC(F)(F)F)c23)c([C@H](Cc2cc(F)cc(F)c2)NC(=O)Cn2nc(C(F)(F)F)c3c2C(F)(F)[C@@H]2C[C@H]32)n1)S(C)(=O)=O [Compound 72, ((4-chloro-7-(2-((S)-1-(2-((3bS,4aR)-5,5-difluoro-3-(trifluoromethyl)-3b,4,4a,5-tetrahydro-1H-cyclopropa[3,4]cyclopenta[1,2-c]pyrazol-1-yl)acetamido)-2-(3,5-difluorophenyl)ethyl)-6-(3-methyl-3-(methylsulfonyl)but-1-yn-1-yl)pyridin-3-yl)-1-(2,2,2-trifluoroethyl)-1H-indazol-3-yl)(methylsulfonyl)carbamoyl)glycine] | 1 μM | 9 μM
6 | CC(C)(C#Cc1ccc(-c2ccc(Cl)c3c(N(C(=O)OCCCO)S(C)(=O)=O)nn(CC(F)(F)F)c23)c([C@H](Cc2cc(F)cc(F)c2)NC(=O)Cn2nc(C(F)(F)F)c3c2C(F)(F)[C@@H]2C[C@H]32)n1)S(C)(=O)=O [Compound 97, 3-hydroxypropyl (4-chloro-7-(2-((S)-1-(2-((3bS,4aR)-5,5-difluoro-3-(trifluoromethyl)-3b,4,4a,5-tetrahydro-1H-cyclopropa[3,4]cyclopenta[1,2-c]pyrazol-1-yl)acetamido)-2-(3,5-difluorophenyl)ethyl)-6-(3-methyl-3-(methylsulfonyl)but-1-yn-1-yl)pyridin-3-yl)-1-(2,2,2-trifluoroethyl)-1H-indazol-3-yl)(methylsulfonyl)carbamate] | 1 μM | 2 μM
7 | C[C@H](OC(=O)N(c1nn(CC(F)(F)F)c2c(-c3ccc(C#CC(C)(C)S(C)(=O)=O)nc3[C@H](Cc3cc(F)cc(F)c3)NC(=O)Cn3nc(C(F)(F)F)c4c3C(F)(F)[C@@H]3C[C@H]43)ccc(Cl)c12)S(C)(=O)=O)C(=O)O [Compound 115, (S)-2-(((4-chloro-7-(2-((S)-1-(2-((3bS,4aR)-5,5-difluoro-3-(trifluoromethyl)-3b,4,4a,5-tetrahydro-1H-cyclopropa[3,4]cyclopenta[1,2-c]pyrazol-1-yl)acetamido)-2-(3,5-difluorophenyl)ethyl)-6-(3-methyl-3-(methylsulfonyl)but-1-yn-1-yl)pyridin-3-yl)-1-(2,2,2-trifluoroethyl)-1H-indazol-3-yl)(methylsulfonyl)carbamoyl)oxy)propanoic acid] | 1/1 μM | 1/1 μM
8 | CC(C)(C#Cc1ccc(-c2ccc(Cl)c3c(N(C(=O)OCCN4CCOCC4)S(C)(=O)=O)nn(CC(F)(F)F)c23)c([C@H](Cc2cc(F)cc(F)c2)NC(=O)Cn2nc(C(F)(F)F)c3c2C(F)(F)[C@@H]2C[C@H]32)n1)S(C)(=O)=O [Compound 114, 2-morpholinoethyl (4-chloro-7-(2-((S)-1-(2-((3bS,4aR)-5,5-difluoro-3-(trifluoromethyl)-3b,4,4a,5-tetrahydro-1H-cyclopropa[3,4]cyclopenta[1,2-c]pyrazol-1-yl)acetamido)-2-(3,5-difluorophenyl)ethyl)-6-(3-methyl-3-(methylsulfonyl)but-1-yn-1-yl)pyridin-3-yl)-1-(2,2,2-trifluoroethyl)-1H-indazol-3-yl)(methylsulfonyl)carbamate] | 24 μM | 1 μM
9 | CC(C)(C#Cc1ccc(-c2ccc(Cl)c3c(N(C(=O)CN4CCNCC4)S(C)(=O)=O)nn(CC(F)(F)F)c23)c([C@H](Cc2cc(F)cc(F)c2)NC(=O)Cn2nc(C(F)(F)F)c3c2C(F)(F)[C@@H]2C[C@H]32)n1)S(C)(=O)=O [Compound 7, (N-(4-chloro-7-(2-((S)-1-(2-((3bS,4aR)-5,5-difluoro-3-(trifluoromethyl)-3b,4,4a,5-tetrahydro-1H-cyclopropa[3,4]cyclopenta[1,2-c]pyrazol-1-yl)acetamido)-2-(3,5-difluorophenyl)ethyl)-6-(3-methyl-3-(methylsulfonyl)but-1-yn-1-yl)pyridin-3-yl)-1-(2,2,2-trifluoroethyl)-1H-indazol-3-yl)-N-(methylsulfonyl)-2-(piperazin-1-yl)acetamide)] | 65 μM | 7 μM
10 | CN(C(=O)N(c1nn(CC(F)(F)F)c2c(-c3ccc(C#CC(C)(C)S(C)(=O)=O)nc3[C@H](Cc3cc(F)cc(F)c3)NC(=O)Cn3nc(C(F)(F)F)c4c3C(F)(F)[C@@H]3C[C@H]43)ccc(Cl)c12)S(C)(=O)=O)[C@@H](CC(=O)O)C(=O)O [Compound 71, N-((4-chloro-7-(2-((S)-1-(2-((3bS,4aR)-5,5-difluoro-3-(trifluoromethyl)-3b,4,4a,5-tetrahydro-1H-cyclopropa[3,4]cyclopenta[1,2-c]pyrazol-1-yl)acetamido)-2-(3,5-difluorophenyl)ethyl)-6-(3-methyl-3-(methylsulfonyl)but-1-yn-1-yl)pyridin-3-yl)-1-(2,2,2-trifluoroethyl)-1H-indazol-3-yl)(methylsulfonyl)carbamoyl)-N-methyl-L-aspartic acid] | 1 μM | 15 μM
11 | CC(C)(C#Cc1ccc(-c2ccc(Cl)c3c(N(C(=O)OCC(=O)O)S(C)(=O)=O)nn(CC(F)(F)F)c23)c([C@H](Cc2cc(F)cc(F)c2)NC(=O)Cn2nc(C(F)(F)F)c3c2C(F)(F)[C@@H]2C[C@H]32)n1)S(C)(=O)=O [Compound 117, 2-(((4-chloro-7-(2-((S)-1-(2-((3bS,4aR)-5,5-difluoro-3-(trifluoromethyl)-3b,4,4a,5-tetrahydro-1H-cyclopropa[3,4]cyclopenta[1,2-c]pyrazol-1-yl)acetamido)-2-(3,5-difluorophenyl)ethyl)-6-(3-methyl-3-(methylsulfonyl)but-1-yn-1-yl)pyridin-3-yl)-1-(2,2,2-trifluoroethyl)-1H-indazol-3-yl)(methylsulfonyl)carbamoyl)oxy)acetic acid] | 9 μM | 10 μM
12 | C[C@H](O)CNC(=O)N(c1nn(CC(F)(F)F)c2c(-c3ccc(C#CC(C)(C)S(C)(=O)=O)nc3[C@H](Cc3cc(F)cc(F)c3)NC(=O)Cn3nc(C(F)(F)F)c4c3C(F)(F)[C@@H]3C[C@H]43)ccc(Cl)c12)S(C)(=O)=O [Compound 34, N—((S)-1-(3-(4-chloro-3-(N—(((S)-2-hydroxypropyl)carbamoyl)methylsulfonamido)-1-(2,2,2-trifluoroethyl)-1H-indazol-7-yl)-6-(3-methyl-3-(methylsulfonyl)but-1-yn-1-yl)pyridin-2-yl)-2-(3,5-difluorophenyl)ethyl)-2-((3bS,4aR)-5,5-difluoro-3-(trifluoromethyl)-3b,4,4a,5-tetrahydro-1H-cyclopropa[3,4]cyclopenta[1,2-c]pyrazol-1-yl)acetamide] | 1 μM | 4 μM
